What follows are compounds tested against T1, recombinant full-length (fl)Tau aggregates (longest isoform of human Tau, 2N4R; 441 amino acids) (Homo sapiens, UniProt P10636) (assay: Full-length Tau (flTau) disaggregation assay by Thioflavin T (ThT)). Details: ThT fluorescence; 2 μM flTau aggregates, 30 minutes at RT.
T1 construct: 35 μM of recombinant full-length (fl)Tau in PBS were aggregated for 24 hours; made in house; host or cells: bacteria
Type: biochemical
Description: Full-Length Tau (flTau) Disaggregation Assay by Thioflavin T (ThT)
The longest isoform of human Tau (2N4R; 441 amino acids) was expressed in bacteria and purified. For the Tau disaggregation assay by ThT, 35 μM of recombinant full-length (fl)Tau in PBS were aggregated for 24 hours at 37° C. in presence of 50 μM of heparin (Sigma-Aldrich) and 10 mM of DTT (Sigma-Aldrich) under shaking at 750 RPM. Compounds were dissolved in anhydrous dimethyl sulfoxide (DMSO, Sigma-Aldrich) to reach a concentration of 10 mM. flTau aggregates and serial dilutions of compounds were mixed together in PBS (volume 50 μL) to a final concentration of 2 μM of flTau aggregates and from 160 to 0.04 μM of compounds. The mixture was incubated for 30 minutes at room temperature (RT), then 40 μL of this mixture were transferred into a black 384-well plate assay (Perkin-Elmer) and mixed with 10 μL of 100 μM ThT in 250 mM glycine (both from Sigma-Aldrich) in PBS. Fluorescence (relative fluorescence units; RFU) was measured in monoplicate or duplicate on a Tecan reader (excitation: 440 nm; emission: 485 nm). Percentage of flTau disaggregation was then calculated and the half maximal effective concentration (EC50) was determined using GraphPad Prism version 5 (GraphPad Software) assuming a one-binding site fitting model.

T1 sequence (P10636 1-441 isoform P10636-8): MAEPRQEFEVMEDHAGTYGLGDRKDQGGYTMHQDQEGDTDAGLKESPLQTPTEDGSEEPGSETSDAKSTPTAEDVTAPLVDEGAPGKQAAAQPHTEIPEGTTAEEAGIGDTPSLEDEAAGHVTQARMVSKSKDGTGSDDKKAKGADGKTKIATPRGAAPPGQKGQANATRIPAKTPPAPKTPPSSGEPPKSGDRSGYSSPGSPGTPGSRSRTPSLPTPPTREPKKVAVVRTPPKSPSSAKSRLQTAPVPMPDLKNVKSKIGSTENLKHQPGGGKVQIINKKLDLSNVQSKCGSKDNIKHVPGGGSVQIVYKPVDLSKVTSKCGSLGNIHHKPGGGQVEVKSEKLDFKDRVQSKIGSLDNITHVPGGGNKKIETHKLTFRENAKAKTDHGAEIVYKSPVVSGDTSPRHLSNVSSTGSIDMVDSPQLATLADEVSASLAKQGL

Row | SMILES | EC50 [µM]
1 | Cn1c2c(c3ccccc31)CCN(c1ccc3nc(N4CCOCC4)sc3c1)C2 [Example 1] | < 10
2 | CN(C)c1nc2ccc(N3CCc4c(n(C)c5ccccc45)C3)cc2s1 [Example 2] | < 10

These compounds were tested against T2, Tau K18 fragment aggregates (amino acids 244 to 372 of human Tau441) (Homo sapiens, UniProt P10636) (assay: Tau K18 disaggregation assay by ThT). Details: ThT fluorescence; 2 μM K18 aggregates, 30 minutes at RT.
T2 construct: encompassing amino acids 244 to 372 of the longest isoform (2N4R) of human Tau441; host or cells: bacteria
Type: biochemical
Description: Tau K18 Disaggregation Assay by ThT
The Tau K18 fragment, encompassing amino acids 244 to 372 of the longest isoform (2N4R) of human Tau441, was expressed in bacteria and purified or bought from SignalChem. For the K18 disaggregation assay by ThT, 35 μM of recombinant K18 in PBS were aggregated for 24 hours at 37° C. in presence of 50 μM of heparin (Sigma-Aldrich) and 10 mM of DTT (Sigma-Aldrich) under shaking at 750 RPM. Compounds were dissolved in anhydrous dimethyl sulfoxide (DMSO, Sigma-Aldrich) to reach a concentration of 10 mM. K18 aggregates and serial dilutions of compounds were mixed together in PBS (volume 50 μL) to a final concentration of 2 μM of K18 aggregates and from 160 to 0.04 μM of compounds. The mixture was incubated for 30 minutes at room temperature (RT), then 40 μL of this mixture were transferred into a black 384-well plate assay (Perkin-Elmer) and mixed with 10 μL of 100 μM ThT in 250 mM glycine (both from Sigma-Aldrich) in PBS. Fluorescence (relative fluorescence units; RFU) was measured in monoplicate or duplicate on a Tecan reader (excitation: 440 nm; emission: 485 nm). Percentage of K18 disaggregation was then calculated and half maximal effective concentration (E050) was determined using GraphPad Prism version 5 (GraphPad Software) assuming a one-binding site fitting model.

T2 sequence (P10636 561-689): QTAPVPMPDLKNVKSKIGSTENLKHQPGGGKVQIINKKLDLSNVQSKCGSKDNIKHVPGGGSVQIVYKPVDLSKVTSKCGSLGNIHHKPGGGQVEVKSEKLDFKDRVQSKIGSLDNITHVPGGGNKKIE

Row | SMILES | EC50 [µM]
3 | COc1ccc2c(c1)c1c(n2C)CN(c2ccc3nc(N4CCOCC4)oc3c2)CC1 [Example 20] | < 10
4 | Fc1ccc2[nH]c3c(c2c1)CCN(c1ccc2sc(N4CCOCC4)nc2c1)C3 [Example 22] | < 10
5 | Fc1ccc2[nH]c3c(c2c1)CCN(c1ccc2nc(N4CCOCC4)sc2c1)C3 [Example 23] | < 10
6 | Fc1ccc2[nH]c3c(c2c1)CCN(c1ccc2nc(N4CCOCC4)oc2c1)C3 [Example 24] | < 10
7 | Fc1ccc2[nH]c3c(c2c1)CCN(c1ccc2oc(N4CCOCC4)nc2c1)C3 [Example 25] | < 10
8 | CN(C)c1nc2ccc(N3CCc4c([nH]c5ccc(F)cc45)C3)cc2s1 [Example 26] | < 10
9 | CN(C)c1nc2ccc(N3CCc4c([nH]c5ccc(F)cc45)C3)cc2o1 [Example 27] | < 10
10 | CN(C)c1nc2cc(N3CCc4c([nH]c5ccc(F)cc45)C3)ccc2o1 [Example 28] | < 10
11 | CN(C)c1nc2ccc(N3CCc4c(n(C)c5ccc(F)cc45)C3)cc2s1 [Example 29] | < 10
12 | COc1ccc2[nH]c3c(c2c1)CCN(c1ccc2sc(N4CCOCC4)nc2c1)C3 [Example 30] | < 10
13 | COc1ccc2[nH]c3c(c2c1)CCN(c1ccc2nc(N4CCOCC4)sc2c1)C3 [Example 31] | < 10
14 | COc1ccc2[nH]c3c(c2c1)CCN(c1ccc2nc(N4CCOCC4)oc2c1)C3 [Example 32] | < 10
15 | COc1ccc2[nH]c3c(c2c1)CCN(c1ccc2oc(N4CCOCC4)nc2c1)C3 [Example 33] | 10 to 25
16 | COc1ccc2[nH]c3c(c2c1)CCN(c1ccc2sc(N(C)C)nc2c1)C3 [Example 34] | < 10
17 | COc1ccc2[nH]c3c(c2c1)CCN(c1ccc2nc(N(C)C)sc2c1)C3 [Example 35] | < 10
18 | COc1ccc2[nH]c3c(c2c1)CCN(c1ccc2nc(N(C)C)oc2c1)C3 [Example 36] | < 10
19 | c1ccc2c3c([nH]c2c1)CN(c1ccc2sc(N4CCOCC4)nc2c1)CC3 [Example 37] | 10 to 25
20 | COc1ccc2[nH]c3c(c2c1)CCN(c1ccc2oc(N(C)C)nc2c1)C3 [Example 39] | < 10
21 | Fc1ccc2[nH]c3c(c2c1)CCN(c1ccc(N2CCOCC2)nc1)C3 [Example 40] | < 10
22 | Fc1ccc2[nH]c3c(c2c1)CCN(c1ccc(N2CCOCC2)cn1)C3 [Example 41] | < 10
23 | CN(C)c1nc2cc(N3CCc4c([nH]c5ccc(F)cc45)C3)ccc2s1 [Example 42] | < 10
24 | Fc1ccc2[nH]c3c(c2c1)CCN(c1cnc(N2CCOCC2)c(F)c1)C3 [Example 48] | < 10

Row | SMILES | EC50 [µM]
25 | Fc1ccc2[nH]c3c(c2c1)CCN(c1cc2sc(N4CCOCC4)nc2cn1)C3 [Example 49] | < 10
26 | Fc1ccc2[nH]c3c(c2c1)CCN(c1cncc(N2CCOCC2)c1)C3 [Example 50] | 10 to 25
27 | Fc1ccc2c3c([nH]c2c1)CN(c1cnc(N2CCOCC2)c(F)c1)CC3 [Example 51] | 10 to 25
28 | Fc1ccc2c3c([nH]c2c1)CN(c1ccc(N2CCOCC2)c(F)c1)CC3 [Example 52] | < 10
29 | Fc1ccc2[nH]c3c(c2c1)CCN(c1cnc2nc(N4CCOCC4)sc2c1)C3 [Example 53] | < 10
30 | Fc1ccc2[nH]c3c(c2c1)CCN(c1ccc2nc(N4CCOCC4)sc2n1)C3 [Example 54] | < 10
31 | Fc1ccc2[nH]c3c(c2c1)CCN(c1ccc(N2CCOCC2)cc1)C3 [Example 55] | < 10
32 | Fc1ccc2[nH]c3c(c2c1)CCN(c1ccc(N2CCOCC2)cc1F)C3 [Example 56] | < 10
33 | Fc1ccc2c3c([nH]c2c1)CN(c1ccc(N2CCOCC2)cc1)CC3 [Example 57] | < 10
34 | Fc1cc(N2CCc3c([nH]c4ccccc34)C2)ccc1N1CCOCC1 [Example 58] | < 10
35 | c1ccc2c3c([nH]c2c1)CN(c1ccc(N2CCOCC2)cc1)CC3 [Example 59] | < 10
36 | CN1CCN(c2ccc(N3CCc4c([nH]c5cc(F)ccc45)C3)cc2)CC1 [Example 62] | 10 to 25
37 | Cn1c2c(c3ccccc31)CCN(c1nc3ccc(N4CCOCC4)cc3o1)C2 [Example 67] | < 10
38 | c1ccc2c3c([nH]c2c1)CN(c1ccc(N2CCOCC2)nn1)CC3 [Example 68] | < 10
39 | c1ccc2c3c([nH]c2c1)CN(c1ccc(N2C4COCC2C4)nc1)CC3 [Example 70] | < 10
40 | C[C@@H]1CN(c2ccc(N3CCc4c([nH]c5ccccc45)C3)cn2)C[C@H](C)O1 [Example 76] | < 10
41 | c1ccc2c3c([nH]c2c1)CN(c1ccc(N2CCOC4(CCC4)C2)nc1)CC3 [Example 77] | < 10
42 | C[C@@H]1COCCN1c1ccc(N2CCc3c([nH]c4ccccc34)C2)cn1 [Example 78] | < 10
43 | c1ccc2c3c([nH]c2c1)CN(c1ccc(N2C[C@@H]4C[C@H]2CO4)nc1)CC3 [Example 86] | < 10
44 | Fc1cccc2[nH]c3c(c12)CCN(c1ccc(N2CCOCC2)nc1)C3 [Example 87] | < 10
45 | Fc1cccc2[nH]c3c(c12)CCN(c1ccc(N2CCOCC2)cn1)C3 [Example 88] | < 10
46 | Fc1cccc2[nH]c3c(c12)CCN(c1ccc2oc(N4CCOCC4)nc2c1)C3 [Example 89] | < 10

Row | SMILES | EC50 [µM]
47 | Cn1c2c(c3c(F)cccc31)CCN(c1ccc3oc(N4CCOCC4)nc3c1)C2 [Example 90] | < 10
48 | Cn1c2c(c3cccc(F)c31)CCN(c1ccc3oc(N4CCOCC4)nc3c1)C2 [Example 91] | < 10
49 | Fc1cccc2c3c([nH]c12)CN(c1ccc(N2CCOCC2)nc1)CC3 [Example 92] | < 10
50 | Fc1cccc2c3c([nH]c12)CN(c1ccc2oc(N4CCOCC4)nc2c1)CC3 [Example 93] | < 10
51 | CN1CCN(c2cnc(N3CCc4c(n(C)c5ccccc45)C3)cn2)CC1 [Example 94] | 10 to 25
52 | CN1CCN(c2ccc(N3CCc4c(n(C)c5ccccc45)C3)cn2)CC1 [Example 95] | 25 to 50
53 | Cn1c2c(c3ccccc31)CCN(c1ccc(N3CCOCC3)nn1)C2 [Example 96] | < 10
54 | CN1CCN(c2nc3cc(N4CCc5c(n(C)c6ccccc56)C4)ccc3o2)CC1 [Example 97] | 10 to 25
55 | CN1CCN(c2nc3cc(N4CCc5c([nH]c6ccccc56)C4)ccc3o2)CC1 [Example 98] | 25 to 50
56 | c1ccc2c3c([nH]c2c1)CN(c1ccc2oc(N4CCOCC4)nc2c1)CC3 [Example 99] | < 10
57 | Cn1c2c(c3ccccc31)CCN(c1ccc3oc(N4CCOCC4)nc3c1)C2 [Example 100] | < 10
58 | Cn1c2c(c3ccccc31)CCN(c1nc3cc(N4CCOCC4)ccc3o1)C2 [Example 101] | < 10
59 | c1ccc2c3c([nH]c2c1)CN(c1nc2ccc(N4CCOCC4)cc2o1)CC3 [Example 102] | < 10
60 | Fc1ccc2c3c([nH]c2c1)CN(c1ccc2oc(N4CCOCC4)nc2c1)CC3 [Example 103] | < 10
61 | Cn1c2c(c3ccccc31)CCN(c1ccc(C#N)nc1)C2 [Example 112] | < 10
62 | N#Cc1ccc(N2CCc3c([nH]c4ccccc34)C2)cn1 [Example 113] | < 10
63 | COC1CCN(c2ccc(N3CCc4c([nH]c5ccccc45)C3)nn2)CC1 [Example 117] | < 10
64 | C[C@H]1CN(c2ccc(N3CCc4c([nH]c5ccccc45)C3)nn2)CCO1 [Example 118] | < 10
65 | C[C@@H]1CN(c2ccc(N3CCc4c([nH]c5ccccc45)C3)nn2)CCO1 [Example 119] | < 10
66 | C[C@@H]1CN(c2ccc(N3CCc4c([nH]c5ccccc45)C3)nn2)C[C@H](C)O1 [Example 120] | < 10
67 | Fc1ccc2[nH]c3c(c2c1)CCN(c1ccc2ccc(N4CCOCC4)nc2c1)C3 [Example 121] | 10 to 25
68 | Fc1ccc2[nH]c3c(c2c1)CCN(c1ccc2nc(N4CCOCC4)ccc2c1)C3 [Example 122] | < 10

Reference: US20210267989A1, “Novel Compounds for the Treatment, Alleviation or Prevention of Disorders Associated with Tau Aggregates” (AC Immune SA, priority 2018, published 2021)
